Results reported in the supplement of paper PMC11208160.

experiment: recombinant UMI read abundance after kanamycin selection (control-corrected) (log10(CPM+1)); higher = more efficient recombination; extreme values may be limits of the assay; sequences stand for … in AGTGCAGAGAAAATCGGCCAGTTTTCTCTGCCTGCAGTCCGCATGCCGTGGGACCCCTTGGGTTCTAACCTGTTGCCTAGATTTATGCAGCGGACTGCCTTTCTCCCAAAGTGATAAACCGG…AGGTTGGTTTCACT; site = the 11-nt donor
Outline: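 Under IPTG (0.07 mM) plus kanamycin, or without selection, Escherichia coli carrying a UMI-tagged donor and donor-binding-loop pair library and a target plasmid for the IS621 bridge recombinase were plated in two replicates. Recombinant UMIs were PCR-amplified across the donor–target junction and sequenced. Counts were converted to CPM, averaged over replicates, scaled by control-derived factors and reported as log10(CPM+1).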
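Note: IS621 bridge recombinase in Escherichia coli cells against a fixed T5 target plasmid.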

In order of falling “recombinant UMI read abundance (log10)” value:
1. GTAGGTACATGGACCGGTTTTCCCGGTAATCCGTATTTGAC (site GTAGGCACTGT)  2.64
2. ATCGTCACATGGACCGGTTTTCCCGGTAATCCGTATTTGCA (site ATCGTCACTTG)  2.56
3. CAGGCATCATGGACCGGTTTTCCCGGTAATCCGTATTTGCA (site CAGGCATCTTG)  2.53
4. GCATGCACATGGACCGGTTTTCCCGGTAATCCGTATTTGTA (site GCATGCACTTA)  2.41
5. GAAAACGCATGGACCGGTTTTCCCGGTAATCCGTATTTGAA (site GAAAACGCTTT)  2.16
6. AGATAGGCATGGACCGGTTTTCCCGGTAATCCGTATTTGCT (site AGACAGGCTAG)  2.12
7. TGAAGCGCATGGACCGGTTTTCCCGGTAATCCGTATTTGCT (site TGAAGCGCTAG)  2.01
8. ATTGTAACATGGACCGGTTTTCCCGGTAATCCGTATTTGCT (site ACTGTAACTAG)  1.9
9. CAGGTGACATGGACCGGTTTTCCCGGTAATCCGTATTTGTA (site CAGGTGACTTA)  1.83
10. TAATTGACATGGACCGGTTTTCCCGGTAATCCGTATTTGCT (site TACTTGACTAG)  1.17
11. CACTTGGCATGGACCGGTTTTCCCGGTAATCCGTATTTGGA (site CACTTGGCTTA)  1.12
12. CCAGGTGCATGGACCGGTTTTCCCGGTAATCCGTATTTGAT (site CCAGGAGCTAT)  0.984
13. GTTGCGTCATGGACCGGTTTTCCCGGTAATCCGTATTTGGT (site GTTGCGTCTAC)  0.923
14. GCGAAGCCATGGACCGGTTTTCCCGGTAATCCGTATTTGCG (site GCGAAGCCTCG)  0.845
15. TCGACGGCATGGACCGGTTTTCCCGGTAATCCGTATTTGAG (site TCGACGGCTCT)  0.666
16. AGAAAAGCATGGACCGGTTTTCCCGGTAATCCGTATTTGCT (site AGAAACGCTAG)  0.464
17. CACGGCCCATGGACCGGTTTTCCCGGTAATCCGTATTTGGT (site CACGGCCCTAT)  0.456
18. GTTCGCGCATGGACCGGTTTTCCCGGTAATCCGTATTTGCA (site GTTCGAGCTTG)  0.394
19. GCTACGCCATGGACCGGTTTTCCCGGTAATCCGTATTTGTA (site GCTACGCCTTA)  0.343
20. CTCTACACATGGACCGGTTTTCCCGGTAATCCGTATTTGCT (site CTCTACACTCG)  0.238
21. ACTAGTGCATGGACCGGTTTTCCCGGTAATCCGTATTTGGC (site ACTAGTGCTAC)  0.0845
22. CGATGACCATGGACCGGTTTTCCCGGTAATCCGTATTTGGG (site CGAGGACCTCC)  0.0601
23. AACCGGCCATGGACCGGTTTTCCCGGTAATCCGTATTTGAT (site AACCGTCCTAT)  0.0213
24. GGCCACCCATGGACCGGTTTTCCCGGTAATCCGTATTTGTT (site GGCGACCCTAA)  0.0156
25. ACACCTACATGGACCGGTTTTCCCGGTAATCCGTATTTGTG (site ACAACTACTCA)  0.0154
26. TTGGCTGCATGGACCGGTTTTCCCGGTAATCCGTATTTGTG (site TTTGCTGCTCA)  0.0121
27. ACATCTACATGGACCGGTTTTCCCGGTAATCCGTATTTGTA (site ACATCTACTAA)  0.0109
28. TGAATACCATGGACCGGTTTTCCCGGTAATCCGTATTTGTG (site TGAATACCTCA)  0.0076
29. CCTTTGGCATGGACCGGTTTTCCCGGTAATCCGTATTTGCT (site CATTTGGCTAG)  0.00684
30. CCGTCAGCATGGACCGGTTTTCCCGGTAATCCGTATTTGTG (site CCGTGAGCTCA)  0.00599
31. TAATGACCATGGACCGGTTTTCCCGGTAATCCGTATTTGGG (site TAATGATCTCC)  0.00372
32. TGGGAGTCATGGACCGGTTTTCCCGGTAATCCGTATTTGCC (site AGGGAGTCTGG)  0
33. GTAAGAACATGGACCGGTTTTCCCGGTAATCCGTATTTGGC (site GTCAGAACTGC)  0
34. AGACATCCATGGACCGGTTTTCCCGGTAATCCGTATTTGAC (site ATACATCCTGT)  0
35. TGTACACCATGGACCGGTTTTCCCGGTAATCCGTATTTGCC (site TGTACACCTGT)  0
36. CGATGATCATGGACCGGTTTTCCCGGTAATCCGTATTTGAT (site CGATCATCTAG)  0
37. GGTACGTCATGGACCGGTTTTCCCGGTAATCCGTATTTGTT (site GGTACGTCTAT)  0
